In patent publication US20040048260A1, “Transfection of nucleic acid” (priority 2002, published 2004):

Columns and labels:
[1] = Stability of DOTAP coating on 96-well plates under complete medium, examined by microscope; assay type: physicochemical
Procedure: (§1) Standard 96-well plates were coated with 1,2 bis(oleoyloxy)-3-(trimethylammonio)propane (DOTAP; purchased from Avanti, Alabaster, Ala.), a cationic lipid. More specifically, 50-microliter aliquots of 2.5 nM, 5 nM, 10 nM, 40 nM, 60 nM, and 80 nM DOTAP methanolic solutions were added to the wells of six sets of the 96-well plates respectively. The plates were then dried overnight in a vacuum-drier and stored in a dessicator until use.
In one experiment, 100 microliters of a complete medium (i.e., RPMI medium containing 10% fetal calf serum, 50 units ml^−1 penicillin, and 50 micrograms ml^−1 streptomycin) was added to each well of the coated plates. The coated surfaces and the overlaying medium were then examined under a microscope at 6-hr intervals for 24 hr.

[2] = test system: fluorescent-labeled oligonucleotide; test: Capture of fluorescent-labeled oligonucleotide by coated plates (fluorescent microscope); assay type: binding; conditions: 0.1 microgram oligonucleotide per well in 100 microliters complete medium
Procedure: as §1
In another experiment, 0.1 microgram of fluorescent-labeled oligonucleotide was added to each well of the coated plates containing 100 microliters of the above-mentioned medium. The plates were then observed under a fluorescent microscope. The fluorescence was detected only on the coated surfaces but not in the medium.

[3] = test system: HeLa cells; test: Transfection of HeLa cells with EGFP plasmid on coated 96-well plates; assay type: cell-based; conditions: 24 hr
From the text: The coated plates prepared in Example 1 were used to transfect HeLa cells with an expression plasmid encoding Enhanced Green Fluorescent Protein (EGFP; purchased from Clontech, Inc., Palo Alto, Calif.). […] Before transfection, 1×10^6 HeLa cells were harvested and resuspended in 5 milliliters of the complete medium described in Example 1. 1 microgram of the EGFP plasmid was mixed with the cells. The mixture was subsequently placed into the coated plates (about 5,000 cells per well). After the cells had grown on the plates for 24 hr, pictures were taken under a fluorescent microscope.
Standard 96-well plates were coated with polyethylenimine […], a cationic polymer. More specifically, PEI (MW 25,000 Daltons) was purchased from Sigma-Aldrich (St. Louis, Mo.) and dissolved in deionized water to reach a concentration of 10 mg/ml. Each PEI solution was passed through a 0.45-micrometer filter membrane. This filtrate was used as the PEI stock solution and stored at 4° C. To coat the plates, the stock solution was diluted with sterile deionized water to 20 microgram/ml and a 10-microliter aliquot was added to each well of 96-well plates. The plates were dried and stored in the manner as described in Example 1.
To conduct transfection, HeLa cells were mixed with the EGFP plasmid in the complete medium described in Example 1 and placed onto the PEI-coated plates. […]

[4] = test system: HeLa cells; test: Transfection of HeLa cells with EGFP plasmid on glass slides tethered with DOTAP or PEI; assay type: cell-based; conditions: HeLa cells on glass slides printed with gelatin or chitosan and tethered coating, 24 hours
Procedure: Glass slides were tethered with DOTAP or PEI and used to transfect HeLa cells.
More specifically, borosilicate glass slides (VWR Scientific, Media, Pa.) were cleaned with Linbro 7× detergent (ICN Biomedicals, Inc., Aurora, Ohio), diluted 1:3 (v/v) in deionized water, and baked at 450° C. for 4 hr. The slides were then printed with gelatin or chitosan by microcontact printing using polydimethylsiloxane (PDMS; Sylgard 184; Dow Corning, Midland, Mich.) elastomer stamps. See Kam L. et al., J Biomed Mater Res. 55: 487-495 (2001). One milliliter of 10 nM DOTAP solution and 20 microgram/ml PEI solutions were respectively overlaid onto two set of slides for one minute. The slides were then briefly rinsed with Dulbecco's modified Eagle's medium (DMEM; Gibco BRL, Great Island, N.Y.) before use.
HeLa cells were mixed with the EGFP plasmid and seeded onto slides that were placed in 100 mm cell culture dishes containing the above-mentioned complete medium.

For `CCCCCCCC/C=C\CCCCCCCC(=O)OCC(C[N+](C)(C)C)OC(=O)CCCCCCC/C=C\CCCCCCCC` (stereo not drawn) [DOTAP, 1,2 bis(oleoyloxy)-3-(trimethylammonio)propane], the “liposome-like particles on the coated surfaces or in the medium” value ([1]; complete medium, 24 hr, all plates) was “no liposome-like particles were found”, the “change of coated surfaces under complete medium” value ([1]; plates coated with 2.5-80 nM DOTAP solutions, examined at 6-hr intervals for 24 hr) was “no difference” and the “capture of nucleic acid (location of fluorescence)” value [2] was “effectively capture nucleic acid”. The “cell shape / spreading on the coated plates” value ([3]; HeLa cells, microscopic views) was “spread unexpectedly well”, the “cells expressing GFP / transfected (of total HeLa cells)” value ([3]; coated 96-well plates, fluorescent microscope, PEI density greater than 0.3 microgram/cm^2) was “more than 80%” and the “cells found to express GFP” value [4] was 80%.
